Data on three molecules can be found in PMC9124818 (Pharmacology Research & Perspectives, 2022).

One may read the IC50 as the point on the concentration scale where inhibition reaches its midpoint.

One series concerns the target CYP2D6 (Homo sapiens, UniProt P10635). Conditions: CYP2D6‐dependent dextromethorphan O‐demethylation; ref 35 von Moltke et al.; cited from earlier work.
In another series the test system is CYP3A. Conditions: ref 35 von Moltke et al.; cited from earlier work.
In the next series the target is T1, CYP1A2 (Homo sapiens, UniProt P05177).
T1 sequence (P05177 1-516): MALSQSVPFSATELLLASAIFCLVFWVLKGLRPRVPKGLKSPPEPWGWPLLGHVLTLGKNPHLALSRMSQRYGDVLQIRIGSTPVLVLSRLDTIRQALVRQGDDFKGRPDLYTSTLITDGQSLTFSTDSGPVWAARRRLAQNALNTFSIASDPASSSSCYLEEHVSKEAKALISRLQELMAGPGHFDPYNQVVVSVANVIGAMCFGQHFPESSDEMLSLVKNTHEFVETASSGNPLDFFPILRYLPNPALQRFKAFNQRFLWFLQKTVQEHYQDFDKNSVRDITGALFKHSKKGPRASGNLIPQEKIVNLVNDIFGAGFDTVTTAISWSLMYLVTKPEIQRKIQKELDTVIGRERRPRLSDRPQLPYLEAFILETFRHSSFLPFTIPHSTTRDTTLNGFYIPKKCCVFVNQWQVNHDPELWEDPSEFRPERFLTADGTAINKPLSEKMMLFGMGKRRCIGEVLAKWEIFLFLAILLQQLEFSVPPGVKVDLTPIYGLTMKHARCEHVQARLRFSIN
Conditions: ref 35 von Moltke et al.; cited from earlier work.

The target of another series is CYP2C9 (Homo sapiens, UniProt P11712). Conditions: ref 35 von Moltke et al.; cited from earlier work.
CYP2C9, sequence (P11712 whole entry): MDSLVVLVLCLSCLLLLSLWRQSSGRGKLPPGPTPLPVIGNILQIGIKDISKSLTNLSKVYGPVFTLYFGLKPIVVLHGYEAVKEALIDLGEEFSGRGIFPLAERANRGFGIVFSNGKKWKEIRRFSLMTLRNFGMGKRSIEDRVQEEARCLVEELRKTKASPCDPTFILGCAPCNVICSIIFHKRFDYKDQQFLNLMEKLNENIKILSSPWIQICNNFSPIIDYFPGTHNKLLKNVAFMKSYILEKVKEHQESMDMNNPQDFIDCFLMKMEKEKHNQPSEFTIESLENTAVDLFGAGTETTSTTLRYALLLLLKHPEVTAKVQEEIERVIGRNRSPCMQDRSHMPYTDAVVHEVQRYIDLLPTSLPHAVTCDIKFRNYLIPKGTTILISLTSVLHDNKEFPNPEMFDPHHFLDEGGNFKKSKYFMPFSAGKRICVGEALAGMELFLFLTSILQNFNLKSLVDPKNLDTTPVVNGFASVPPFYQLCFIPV
The next series deals with CYP1A2 mRNA. Nature of the series: CYP450 induction in cultured human hepatocytes, mRNA by qRT-PCR. In kind it is cell-based. Conditions: human, hepatocytes, 3 days, 50 μM. On the procedure: Each PCR was performed in triplicate.

CYP2D6, sequence (P10635 whole entry): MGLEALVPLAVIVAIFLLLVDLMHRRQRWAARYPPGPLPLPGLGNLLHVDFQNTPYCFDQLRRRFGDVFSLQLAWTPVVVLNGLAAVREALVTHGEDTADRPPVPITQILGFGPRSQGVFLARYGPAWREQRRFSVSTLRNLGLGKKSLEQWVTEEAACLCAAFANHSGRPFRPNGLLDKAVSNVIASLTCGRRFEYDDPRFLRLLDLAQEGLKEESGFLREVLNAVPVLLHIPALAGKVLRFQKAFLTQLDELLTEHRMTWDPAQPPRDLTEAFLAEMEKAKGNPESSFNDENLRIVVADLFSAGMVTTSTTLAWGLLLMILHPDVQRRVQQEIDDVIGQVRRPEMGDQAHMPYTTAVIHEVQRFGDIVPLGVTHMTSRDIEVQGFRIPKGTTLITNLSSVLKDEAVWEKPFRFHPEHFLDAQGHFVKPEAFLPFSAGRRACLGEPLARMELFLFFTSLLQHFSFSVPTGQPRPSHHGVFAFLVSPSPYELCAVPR

`CCN[C@@H](C)Cc1cccc(C(F)(F)F)c1` [D‐FFA]: on CYP2D6, the half-maximal inhibitory concentration (IC50) was 15.1 µM. In addition, the inhibitor potential result in the series with CYP3A, on CYP1A2 and at CYP2C9 was “weak or negligible inhibitor potential” throughout.
In the case of `CCN[C@H](C)Cc1cccc(C(F)(F)F)c1` [L‐FFA], the half-inhibitory concentration (IC50) at CYP2D6 is 15.1 µM. For the same molecule, the inhibitor potential result in the series with CYP3A, on CYP1A2 and at CYP2C9 was “weak or negligible inhibitor potential” each time.
With `COc1ccc2[nH]c([S+]([O-])Cc3ncc(C)c(OC)c3C)nc2c1` (stereo not drawn) [Omeprazole, omeprazole, reference compound], the “increase in CYP1A2 mRNA levels” value in the series on CYP1A2 mRNA was 32.7-52.5 fold.
